The text below walks through data of ChEMBL document CHEMBL5214970, “Discovery and optimization of orally bioavailable and potent plasma Kallikrein inhibitors bearing a quaternary carbon” (Bioorg Med Chem, 2022).

The IC50 is the concentration needed to halve the response being measured. One may read the AUC(0-t) as the area under the concentration-time curve up to a stated or last time point. Lower therefore signals low exposure. A word on the Cmax: it is the highest concentration seen after dosing. A word on the AUC: it is the area under the concentration-time curve, a measure of exposure. Low readings indicate less exposure, high ones more exposure.

The target of data set [1] is T1, Plasma kallikrein (Homo sapiens, UniProt P03952). The data set can be described thus: Inhibition of purified human plasma kallikrein using H-D-Pro-Phe-Arg-pNA.2HCl as substrate measured after 3 mins by microplate reader analysis.
T1 sequence (P03952 20-390 limits assumed): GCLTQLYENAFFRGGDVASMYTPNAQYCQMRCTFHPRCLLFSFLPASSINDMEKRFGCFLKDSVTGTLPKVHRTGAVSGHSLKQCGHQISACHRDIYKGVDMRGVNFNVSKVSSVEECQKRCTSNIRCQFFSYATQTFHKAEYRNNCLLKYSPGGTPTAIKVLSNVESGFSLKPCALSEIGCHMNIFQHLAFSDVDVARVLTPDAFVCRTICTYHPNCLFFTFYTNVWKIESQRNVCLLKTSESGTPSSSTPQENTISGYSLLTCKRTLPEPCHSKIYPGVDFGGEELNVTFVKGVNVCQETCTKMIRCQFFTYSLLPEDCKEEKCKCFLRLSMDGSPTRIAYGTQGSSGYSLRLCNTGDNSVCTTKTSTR
T1 sequence (P03952 391-638 limits assumed): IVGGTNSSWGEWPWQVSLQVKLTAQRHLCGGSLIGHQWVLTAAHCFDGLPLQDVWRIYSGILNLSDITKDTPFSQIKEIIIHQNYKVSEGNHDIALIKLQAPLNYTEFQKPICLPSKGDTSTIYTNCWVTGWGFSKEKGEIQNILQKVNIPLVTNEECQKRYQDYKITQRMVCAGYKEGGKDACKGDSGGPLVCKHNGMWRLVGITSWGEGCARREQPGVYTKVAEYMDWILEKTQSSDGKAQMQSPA
Data set [2] concerns the target T1, Plasma kallikrein. The data set can be described thus: Inhibition of endogenous human plasma kallikrein using Z-Phe-Arg-AMC.HCl as substrate measured after 5 mins by microplate reader analysis.
A short description of data set [3]: AUC (0 to 24hrs) in Sprague-Dawley rat at 10 mg/kg,po. Type of data set: ADME, organism-based. The arrangement: time < 24 hr, dose 10 mg/kg, route po. Conditions: in vivo; for AUC(0-t) at 24 h: Sprague-Dawley.
The nature of data set [4]: Cmax in Sprague-Dawley rat at 10 mg/kg,po. The following applies: in vivo. The arrangement: dose 10 mg/kg, route po. Type of data set: ADME, organism-based.
Data set [5] can be described thus: Cmin in Sprague-Dawley rat at 10 mg/kg,po measured after 24 hrs. Type of data set: ADME, organism-based. Conditions: in vivo; for concentration at 24 h: Sprague-Dawley, read-out: Cmin.

As to `NCc1cccc(-n2nc(C(F)(F)F)cc2C(=O)Nc2cccc(C(O)(CCC3CC3)c3ccncc3)c2)c1` (stereo in doubt; 24), the half-maximal inhibitory concentration (IC50) is 59 nM in data set [1] and 178 nM in data set [2].
`NCc1cccc(-n2nc(C(F)(F)F)cc2C(=O)Nc2cccc(C(O)(CCC3CC3)c3ccncc3)c2)c1` (stereo in doubt; 23) displayed an AUC(0-t) at 24 h in data set [3] of 11 ng·h/mL. Also, the half-inhibitory concentration (IC50) was found to be 1.3 nM in data set [1] and 7.6 nM in data set [2]. Also, the peak concentration (Cmax) in data set [4] (Sprague-Dawley, read-out: Cmax) worked out at 7 ng/mL.
`NCc1cccc(-n2nc(C(F)(F)F)cc2C(=O)Nc2cc(C(N)(CCC3CC3)c3cccc(C(N)=O)c3)ccc2F)c1` (stereo unspecified) came in with an area under the curve AUC(0-t) at 24 h in data set [3] of 306 ng·h/mL. Further, the concentration at 24 h in data set [5] was 9.4 ng/mL. The IC50 in data set [1] worked out at 1.3 nM; in data set [2], 6 nM. Also, in data set [4] (Sprague-Dawley, read-out: Cmax), the Cmax was determined as 17 ng/mL.
Turning to `NCc1cccc(-n2nc(C(F)(F)F)cc2C(=O)Nc2cccc(C(O)(CCC3CC3)c3ccncc3)c2)c1` (stereo in doubt; 9), the IC50 came out at 4.7 nM in data set [1] and 17 nM in data set [2].
In data set [1], `Cc1cc(C(N)(CCC2CC2)c2ccc(F)c(NC(=O)c3cc(C(F)(F)F)nn3-c3cccc(CN)c3)c2)ccn1` (stereo in doubt; 36) displayed an IC50 of 18.4 nM.
In turn, `NCc1cccc(-n2nc(C(F)(F)F)cc2C(=O)Nc2cc(C(N)(CCC3CC3)c3ccncc3)ccc2F)c1` (stereo in doubt; 33) yielded an exposure AUC(0-t) at 24 h in data set [3] of 825 ng·h/mL. For the same compound, the concentration at 24 h in data set [5] was 22.9 ng/mL. For the same compound, the values for the IC50 in data set [1] and in data set [2] were 1.5 nM and 3 nM, respectively. Moreover, the Cmax in data set [4] (Sprague-Dawley, read-out: Cmax) worked out at 93 ng/mL.
For `NCc1cccc(-n2nc(C(F)(F)F)cc2C(=O)Nc2cc(C(O)(CCC3CC3)c3ccncc3)ccc2F)c1` (stereo in doubt; 25) the same measures were 95 ng·h/mL, 2 ng/mL, 1.1 nM, 7.7 nM and 42 ng/mL.
Regarding `N#Cc1cccc(C(N)(CCC2CC2)c2ccc(F)c(NC(=O)c3cc(C(F)(F)F)nn3-c3cccc(CN)c3)c2)c1` (stereo in doubt; 37), in data set [3], the AUC(0-t) at 24 h stood at 3330 ng·h/mL. Also, the concentration at 24 h in data set [5] was found to be 56.5 ng/mL. Further, the 50% inhibitory concentration (IC50) turned out to be 1.3 nM in data set [1] and 3.2 nM in data set [2]. Further, in data set [4] (Sprague-Dawley, read-out: Cmax), the highest concentration (Cmax) was determined as 429 ng/mL.
Compound `NCc1cccc(-n2nc(C(F)(F)F)cc2C(=O)Nc2cc(C(N)(CCC3CC3)c3ccccn3)ccc2F)c1` (stereo in doubt; 29) gave an exposure AUC(0-t) at 24 h in data set [3] of 960 ng·h/mL. The concentration at 24 h in data set [5] amounted to 15.1 ng/mL. Further, the peak concentration (Cmax) in data set [4] (Sprague-Dawley, read-out: Cmax) is 157 ng/mL.
The compound `Cc1cc(C(N)(CCC2CC2)c2ccc(F)c(NC(=O)c3cc(C(F)(F)F)nn3-c3cccc(CN)c3)c2)ccn1` (stereo in doubt; 35) showed an area under the curve AUC(0-t) at 24 h in data set [3] of 1560 ng·h/mL. Also, the concentration at 24 h in data set [5] turned out to be 24.5 ng/mL. Further, the values for the IC50 in data set [1] and in data set [2] were 1.2 nM and 3 nM, respectively. The Cmax in data set [4] (Sprague-Dawley, read-out: Cmax) was found to be 390 ng/mL.
Regarding `NCc1cccc(-n2nc(C(F)(F)F)cc2C(=O)Nc2cc(C(N)(CCC3CC3)c3ccncc3)ccc2F)c1` (stereo in doubt; 34), the IC50 in data set [1] is 118 nM; in data set [2], 76 nM.
For the compound `N#Cc1ccc(C(N)(CCC2CC2)c2ccc(F)c(NC(=O)c3cc(C(F)(F)F)nn3-c3cccc(CN)c3)c2)cc1` (stereo in doubt; 41), in data set [3], the AUC(0-t) at 24 h stood at 2290 ng·h/mL. Moreover, in data set [5], the concentration at 24 h came out at 40.1 ng/mL. Moreover, in data set [4] (Sprague-Dawley, read-out: Cmax), the highest concentration (Cmax) was found to be 303 ng/mL.
As to `NCc1cccc(-n2nc(C(F)(F)F)cc2C(=O)Nc2cccc(C(O)(CCC3CC3)c3cccnc3)c2)c1` (stereo in doubt; 8), the half-maximal inhibitory concentration (IC50) is 5.7 nM in data set [1] and 23 nM in data set [2].
For `NCc1cccc(-n2nc(C(F)(F)F)cc2C(=O)Nc2cccc(C(O)(CCC3CC3)c3ccccc3)c2)c1` (stereo in doubt; 11) the same measures were 62 nM and 1190 nM.
For `NCc1cccc(-n2nc(C(F)(F)F)cc2C(=O)Nc2cccc(C(O)(CCC3CC3)c3ccccc3)c2)c1` (stereo in doubt; 10) the same measures were 1.2 nM and 56 nM.
The matching figures for `NCc1cccc(-n2nc(C(F)(F)F)cc2C(=O)Nc2cc(C(N)(CCC3CC3)c3ccc(C(N)=O)cc3)ccc2F)c1` (stereo unspecified): 0.9 nM and 3.8 nM.
For the compound `NCc1cccc(-n2nc(C(F)(F)F)cc2C(=O)Nc2cccc(C(CCC3CC3)c3ccccc3)c2)c1` (stereo unspecified), the half-inhibitory concentration (IC50) in data set [1] is 10.4 nM; in data set [2], 2030 nM.
In data set [3], `NCc1cccc(-n2nc(C(F)(F)F)cc2C(=O)Nc2cc(C(N)(CCC3CC3)c3ccc(C(N)=O)nc3)ccc2F)c1` (single isomer, unassigned; (+)) returned an exposure AUC(0-t) at 24 h of 134 ng·h/mL. Besides, the values for the IC50 in data set [1] and in data set [2] were 2.3 nM and 1.7 nM, respectively. Also, the maximum concentration (Cmax) in data set [4] (Sprague-Dawley, read-out: Cmax) was determined as 27 ng/mL.
In turn, `N#Cc1cccc(C(N)(CCC2CC2)c2ccc(F)c(NC(=O)c3cc(C(F)(F)F)nn3-c3cccc(CN)c3)c2)n1` (stereo unspecified) returned an area under the curve AUC(0-t) at 24 h in data set [3] of 2890 ng·h/mL. In addition, the concentration at 24 h in data set [5] is 53.3 ng/mL. In addition, the half-inhibitory concentration (IC50) in data set [1] worked out at 2.9 nM; in data set [2] it was 12 nM. Further, the Cmax in data set [4] (Sprague-Dawley, read-out: Cmax) turned out to be 676 ng/mL.
As to `NCc1cccc(-n2nc(C(F)(F)F)cc2C(=O)Nc2cccc(C(O)(CCC3CC3)c3cccnc3)c2)c1` (stereo in doubt; 19), the half-inhibitory concentration (IC50) is 59 nM in data set [1] and 264 nM in data set [2].
Compound `NCc1cccc(-n2nc(C(F)(F)F)cc2C(=O)Nc2cc(C(N)(CCC3CC3)c3cccnc3)ccc2F)c1` (stereo in doubt; 31) had an AUC(0-t) at 24 h in data set [3] of 888 ng·h/mL. For the same compound, the concentration at 24 h in data set [5] was 9.62 ng/mL. In data set [4] (Sprague-Dawley, read-out: Cmax), the Cmax came out at 190 ng/mL.
For `NCc1cccc(-n2nc(C(F)(F)F)cc2C(=O)Nc2cc(C(O)(CCC3CC3)c3cccnc3)ccc2F)c1` (stereo in doubt; 20) the same measures were 1440 ng·h/mL, 13 ng/mL and 383 ng/mL.
For `NCc1cccc(-n2nc(C(F)(F)F)cc2C(=O)Nc2cc(C(O)(CCC3CC3)c3ccncc3)ccc2F)c1` (stereo in doubt; 26), the half-maximal inhibitory concentration (IC50) worked out at 180 nM in data set [1] and 165 nM in data set [2].
For `NCc1cccc(-n2nc(C(F)(F)F)cc2C(=O)Nc2cccc(C(NCC3CC3)c3ccccc3)c2)c1` (stereo unspecified) the same measures were 5.4 nM and 19.3 nM.
`NCc1cccc(-n2nc(C(F)(F)F)cc2C(=O)Nc2cc(C(O)(CCC3CC3)c3cccnc3)ccc2F)c1` (stereo in doubt; 21): in data set [3] (24 h), the AUC was 887 ng·h/mL. In data set [5] (po, 10 mg/kg, 24 h), this compound gave a Cmin of 9 ng/mL. Besides, in data set [4], the maximum concentration (Cmax) turned out to be 224 ng/mL.
As for `NCc1cccc(-n2nc(C(F)(F)F)cc2C(=O)Nc2cccc(C(O)(CCC3CC3)c3ccccn3)c2)c1` (stereo unspecified), the results for the IC50 in data set [1] and in data set [2] were 18.5 nM and 104 nM, respectively.
In the case of `NCc1cccc(-n2nc(C(F)(F)F)cc2C(=O)Nc2cccc(C(O)(CCC3CC3)c3cccnc3)c2)c1` (stereo in doubt; 18), the area under the curve AUC(0-t) at 24 h in data set [3] is 128 ng·h/mL. The figures for the 50% inhibitory concentration (IC50) in data set [1] and in data set [2] were 1.9 nM and 9 nM, respectively. The highest concentration (Cmax) in data set [4] (Sprague-Dawley, read-out: Cmax) amounted to 51 ng/mL.
`NCc1cccc(-n2nc(C(F)(F)F)cc2C(=O)Nc2cccc(C(O)(CCC3CC3)c3ccccc3)c2)c1` (stereo in doubt; 6): the IC50 in data set [1] amounted to 14 nM; in data set [2], 191 nM.
Consider `N#Cc1cccc(C(N)(CCC2CC2)c2ccc(F)c(NC(=O)c3cc(C(F)(F)F)nn3-c3cccc(CN)c3)c2)c1` (stereo in doubt; 38), for which the figures for the concentration for half-maximal inhibition (IC50) in data set [1] and in data set [2] were 234 nM and 382 nM, respectively.
